PubChem BioAssay AID1845199 (Molecular Pharmacology Branch, DTP, NCI, 2023)
“And” between values parts separate entries of the source, which are not always exact repeats. Equal values may be shown once. Values belong to the compound of their own block, whether it stands above or below them.

Test system: 556581-035-R-J1 tumor spheroid viability, % test/control
Experiment: Anticancer human tumor 556581-035-R-J1 patient-derived ovarian carcinoma cell line growth inhibition
Settings: spheroids with HUVEC and MSC; for viability, T/C: stronger effect = lower value
In short: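 Complex spheroids of malignant cells with endothelial cells and mesenchymal stem cells; agents alone or combined, from near clinical Cmax (or 10 microM if unknown) down in half-log steps, 0.25% DMSO final.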

[1] = curve of first compound, second compound 1 µM
[2] = curve of first compound, second compound 3.16 µM
[3] = curve of first compound, second compound 10 µM
[4] = curve of first compound, second compound 31.6 µM
[5] = curve of first compound, second compound 100 µM
[6] = second compound 1 µM, first compound 0.0316 µM
[7] = second compound 1 µM, first compound 0.1 µM
[8] = second compound 1 µM, first compound 0.316 µM
[9] = second compound 1 µM, first compound 1 µM
[10] = second compound 1 µM, first compound 3.16 µM
[11] = second compound 1 µM, first compound 10 µM
[12] = second compound 3.16 µM, first compound 0.0316 µM
[13] = second compound 3.16 µM, first compound 0.1 µM
[14] = second compound 3.16 µM, first compound 0.316 µM
[15] = second compound 3.16 µM, first compound 1 µM
[16] = second compound 3.16 µM, first compound 3.16 µM
[17] = second compound 3.16 µM, first compound 10 µM
[18] = second compound 10 µM, first compound 0.0316 µM
[19] = second compound 10 µM, first compound 0.1 µM
[20] = second compound 10 µM, first compound 0.316 µM
[21] = second compound 10 µM, first compound 1 µM
[22] = second compound 10 µM, first compound 3.16 µM
[23] = second compound 10 µM, first compound 10 µM
[24] = second compound 31.6 µM, first compound 0.0316 µM
[25] = second compound 31.6 µM, first compound 0.1 µM
[26] = second compound 31.6 µM, first compound 0.316 µM
[27] = second compound 31.6 µM, first compound 1 µM
[28] = second compound 31.6 µM, first compound 3.16 µM
[29] = second compound 31.6 µM, first compound 10 µM
[30] = second compound 100 µM, first compound 0.0316 µM
[31] = second compound 100 µM, first compound 0.1 µM
[32] = second compound 100 µM, first compound 0.316 µM
[33] = second compound 100 µM, first compound 1 µM
[34] = second compound 100 µM, first compound 3.16 µM
[35] = second compound 100 µM, first compound 10 µM
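Note: spheroids exposed to compounds for 7 days before viability read.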

SMILES: CC1COCCN1c1cc(-c2ccnn2C)c2ccnc(-c3ccn[nH]3)c2n1 (stereo unspecified)
viability, T/C (compound 0.0316 µM): 95.7% and 92.7% and 89.5%
viability, T/C (compound 0.1 µM): 76.3% and 75.8% and 79.5%
viability, T/C (compound 0.316 µM): 56.5% and 57.8% and 55.5%
viability, T/C (compound 1 µM): 45.5% and 44.4% and 41.9%
viability, T/C (compound 3.16 µM): 39.9% and 39% and 33.9%
viability, T/C (compound 10 µM): 35.6% and 32.5% and 30.2%
IC50 (curve of compound): 0.636 µM and 0.647 µM and 0.521 µM

SMILES: CC(C)n1c(=O)n(C)c2cnc3cc(F)c(-c4ccc(OCCCN5CCCCC5)nc4)cc3c21 + Cn1nnc2c(C(N)=O)ncn2c1=O
IC50 [1]: > 10 µM
IC50 [2]: > 10 µM
IC50 [3]: > 10 µM
IC50 [4]: > 10 µM
IC50 [5]: > 10 µM
viability, T/C [6]: 109%
viability, T/C [7]: 109%
viability, T/C [8]: 109%
viability, T/C [9]: 106%
viability, T/C [10]: 98.5%
viability, T/C [11]: 70.2%
viability, T/C [12]: 101%
viability, T/C [13]: 112%
viability, T/C [14]: 101%
viability, T/C [15]: 112%
viability, T/C [16]: 96.6%
viability, T/C [17]: 62.3%
viability, T/C [18]: 102%
viability, T/C [19]: 109%
viability, T/C [20]: 105%
viability, T/C [21]: 104%
viability, T/C [22]: 95.5%
viability, T/C [23]: 67.3%
viability, T/C [24]: 108%
viability, T/C [25]: 106%
viability, T/C [26]: 103%
viability, T/C [27]: 112%
viability, T/C [28]: 92.7%
viability, T/C [29]: 65.8%
viability, T/C [30]: 105%
viability, T/C [31]: 106%
viability, T/C [32]: 99.6%
viability, T/C [33]: 101%
viability, T/C [34]: 90.1%
viability, T/C [35]: 69.1%

SMILES: [2H]c1nc(C)nc([2H])c1-c1cc(NC[C@@H](C)c2cccc3c(C(=O)NC)ccnc23)ncn1 + Cn1nnc2c(C(N)=O)ncn2c1=O
IC50 [1]: > 10 µM
IC50 [2]: > 10 µM
IC50 [3]: > 10 µM
IC50 [4]: > 10 µM
IC50 [5]: > 10 µM
viability, T/C [6]: 111%
viability, T/C [7]: 111%
viability, T/C [8]: 106%
viability, T/C [9]: 112%
viability, T/C [10]: 108%
viability, T/C [11]: 112%
viability, T/C [12]: 98.7%
viability, T/C [13]: 104%
viability, T/C [14]: 106%
viability, T/C [15]: 115%
viability, T/C [16]: 119%
viability, T/C [17]: 113%
viability, T/C [18]: 105%
viability, T/C [19]: 103%
viability, T/C [20]: 115%
viability, T/C [21]: 112%
viability, T/C [22]: 113%
viability, T/C [23]: 115%
viability, T/C [24]: 116%
viability, T/C [25]: 109%
viability, T/C [26]: 115%
viability, T/C [27]: 119%
viability, T/C [28]: 116%
viability, T/C [29]: 112%
viability, T/C [30]: 115%
viability, T/C [31]: 114%
viability, T/C [32]: 116%
viability, T/C [33]: 114%
viability, T/C [34]: 108%
viability, T/C [35]: 114%

SMILES: COc1cc(C)[nH]c(=O)c1CN1CCc2c(Cl)cc(C(OC)C3COC3)c(Cl)c2C1=O (stereo unspecified) + COc1cc2c(cc1O)CCNC21CSC2c3c(OC(C)=O)c(C)c4c(c3C(COC1=O)N1C(O)C3Cc5cc(C)c(OC)c(O)c5C(C21)N3C)OCO4
IC50 (curve of first compound, second compound 30 pM): > 10 µM
IC50 (curve of first compound, second compound 94.9 pM): > 10 µM
IC50 (curve of first compound, second compound 0.0003 µM): > 10 µM
IC50 (curve of first compound, second compound 0.000949 µM): < 0.0316 µM
IC50 (curve of first compound, second compound 0.003 µM): < 0.0316 µM
viability, T/C (second compound 30 pM, first compound 0.0316 µM): 106%
viability, T/C (second compound 30 pM, first compound 0.1 µM): 108%
viability, T/C (second compound 30 pM, first compound 0.316 µM): 105%
viability, T/C (second compound 30 pM, first compound 1 µM): 115%
viability, T/C (second compound 30 pM, first compound 3.16 µM): 116%
viability, T/C (second compound 30 pM, first compound 10 µM): 113%
viability, T/C (second compound 94.9 pM, first compound 0.0316 µM): 103%
viability, T/C (second compound 94.9 pM, first compound 0.1 µM): 101%
viability, T/C (second compound 94.9 pM, first compound 0.316 µM): 108%
viability, T/C (second compound 94.9 pM, first compound 1 µM): 111%
viability, T/C (second compound 94.9 pM, first compound 3.16 µM): 108%
viability, T/C (second compound 94.9 pM, first compound 10 µM): 110%
viability, T/C (second compound 0.0003 µM, first compound 0.0316 µM): 92.4%
viability, T/C (second compound 0.0003 µM, first compound 0.1 µM): 95%
viability, T/C (second compound 0.0003 µM, first compound 0.316 µM): 100%
viability, T/C (second compound 0.0003 µM, first compound 1 µM): 101%
viability, T/C (second compound 0.0003 µM, first compound 3.16 µM): 98.2%
viability, T/C (second compound 0.0003 µM, first compound 10 µM): 93.7%
viability, T/C (second compound 0.000949 µM, first compound 0.0316 µM): 44.6%
viability, T/C (second compound 0.000949 µM, first compound 0.1 µM): 46.5%
viability, T/C (second compound 0.000949 µM, first compound 0.316 µM): 41.4%
viability, T/C (second compound 0.000949 µM, first compound 1 µM): 36.7%
viability, T/C (second compound 0.000949 µM, first compound 3.16 µM): 32.1%
viability, T/C (second compound 0.000949 µM, first compound 10 µM): 17.6%
viability, T/C (second compound 0.003 µM, first compound 0.0316 µM): 0.61%
viability, T/C (second compound 0.003 µM, first compound 0.1 µM): 0.67%
viability, T/C (second compound 0.003 µM, first compound 0.316 µM): 2.15%
viability, T/C (second compound 0.003 µM, first compound 1 µM): 0.7%
viability, T/C (second compound 0.003 µM, first compound 3.16 µM): 0.66%
viability, T/C (second compound 0.003 µM, first compound 10 µM): 1.02%

IC50 (compound alone, run of 10/17/2019): > 100 µM
SMILES: Cn1nnc2c(C(N)=O)ncn2c1=O
viability, T/C (compound 1 µM): 103% [middle of 10 runs]
viability, T/C (compound 10 µM): 104% [middle of 10 runs]
viability, T/C (compound 31.6 µM): 107% [middle of 10 runs]
